Laboratory results as given in US10961219B2, “Derivatives and their use as selective inhibitors of caspase-2” (priority 2016, dated 2021).
Residues, ends and D or L forms follow the SMILES beside them. *: point of attachment. X1 = O=C(O)C[C@H](N*)C(=O)COc1c(F)cccc1F; Quinaldoyl = O=C(c1ccc2ccccc2n1)*

What was measured:
Caspase-2 = biological target: T1, Caspase-2 (Homo sapiens, UniProt P42575); experiment: Caspase-2 inhibition assay (in vitro), kinact/KI by continuous method; format: biochemical; details: for kinact/KI: human recombinant Caspase-2 0.1 nM, substrate Ac-VDVAD-AMC, 37° C., read-out: Inactivation constant kinact/KI Caspase-2 (converted); for times more efficient to inactivate Caspase-2 than to inactivate Caspase-3 (selectivity): ratio of kinact/KI Caspase-2 versus Caspase-3
T1 construct: the Caspase-2 and Caspase-3 are human recombinant active enzymes; purchased Enzo Life ALX-201-057-U100
T1 sequence (P42575 170-325 limits assumed): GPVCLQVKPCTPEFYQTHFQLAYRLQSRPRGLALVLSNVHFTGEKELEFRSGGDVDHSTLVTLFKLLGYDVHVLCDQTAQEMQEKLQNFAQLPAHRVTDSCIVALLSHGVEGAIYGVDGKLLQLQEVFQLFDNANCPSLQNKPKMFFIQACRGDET
T1 sequence (P42575 348-452 limits assumed): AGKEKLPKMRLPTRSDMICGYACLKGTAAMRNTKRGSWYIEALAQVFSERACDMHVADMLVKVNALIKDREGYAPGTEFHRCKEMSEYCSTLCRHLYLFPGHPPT
Text: (§1) The efficiency of the compound 2 of the invention to inhibit Caspase-2 and Caspase-3 has been evaluated by using the below explained protocol.
(§2) The efficiency of the comparative compound Δ2Me-TRP601, that is an already known group II Caspase inhibitor (inhibitor of Caspase-2, Caspase-3 and Caspase-7), has been assessed by a similar protocol described in Chauvier et al., 2011 Cell Death Dis 2011, 2:e203.
In this example, the Caspase-2 and Caspase-3 are human recombinant active enzymes that are respectively provided by Enzo Life® (ALX-201-057-U100) and R&D Systems® (707-C3-010/CF).
Caspase-2 is used at a final concentration of 0.1 nM in a “Caspase-2 buffer” containing 20 mM HEPES (pH 7.4), 5 mM DTT, 2 mM EDTA, 0.1% CHAPS and 800 mM succinate. Caspase-3 is used at a final concentration of 0.5 nM in a “Caspase-3 buffer” containing 20 mM HEPES (pH 7.4), 0.1% CHAPS, 5 mM DTT, and 2 mM EDTA.
(§3) The peptide substrates used for the enzymatic activity measurements are Ac-DEVD-AMC and Ac-VDVAD-AMC commercialized by EnzoLife® (respectively referenced ALX-260-031-M005 and ALX-260-060-M005). They are fluorogenic due to the presence of their AMC (7-amino-4-methylcoumarin) end group. The releasing of AMC enables to follow the enzymatic activity in fluorescence unit RFU over time in a 96-wells microplate (COSTAR 3915).
The fluorescence values are measured at 37° C. with a spectrofluorometer with a microplate reader BMG FLUOstar OPTIMA. This apparatus is driven by the software Biolise® and is equipped with thermoelectric cooling device by Peltier effect. The mathematic analysis of the experimental data are done with the software Kaleidagraph@.
The inhibitory properties of the tested compounds are evaluated by the determination of the kinact/KI ratio regarding either Caspase-2 or Caspase-3 wherein: • kinact is the maximal inactivation rate constant, and • KI is the dissociation constant according to:
Said ratio is measured according to the continuous method (Allison R D. Curr Protoc Protein Sci. 2001 May; Chapter 3:Unit 3.5.; Chauvier et al., 2011 Cell Death Dis 2:e203; Tan et al., J Med Chem 2015, […]).
Briefly, Caspases activities were determined by monitoring the hydrolysis of fluorogenic substrates (λexc=355 nm, λem=460 nm) as a function of time, in the presence of untreated Caspases (control) or Caspases that had been incubated with a test compound, for 30 min minimum at 37° C. using a BMG Fluostar microplate reader (black 96-well microplates) and the initial velocity (V0) was determined from the linear portion of the progress curve.
Substrates and compounds were previously dissolved in DMSO at 10 mM, with the final solvent concentration kept at lower 4% (v/v). V0, relative velocities, KM and IC50 were determined from experimental datas using Mars datas Analysis 2.0 and Kaleidagraph softwares.
Inhibitor binding affinity (dissociation constant, KI) and first-order rate constant (k3) parameters were determined for Caspase-2 and Caspase-3 using the progress curve method. The ratio k3/KI was obtained by fitting the experimental data to the equations (F.U., fluorescence unit): […]
A continuous method of determination of the kinact/KI ratio was used for evaluating the inhibitory activity of the tested compounds against Caspase-2 and Caspase-3.
The reaction mixture is prepared by letting the enzyme and the buffer incubate at 37° C. […]
(§4) The activities of the enzyme are measured between 45 and 60 minutes. […]

Caspase-3 = biological target: T2, Caspase-3 (Homo sapiens, UniProt P42574); experiment: Caspase-3 inhibition assay (in vitro), kinact/KI by continuous method; format: biochemical; details: human recombinant Caspase-3 0.5 nM, substrate Ac-DEVD-AMC, 37° C.; read-out: Inactivation constant kinact/KI Caspase-3 (converted)
T2 construct: the Caspase-2 and Caspase-3 are human recombinant active enzymes; purchased R&D Systems 707-C3-010/CF
T2 sequence (P42574 29-175 limits assumed): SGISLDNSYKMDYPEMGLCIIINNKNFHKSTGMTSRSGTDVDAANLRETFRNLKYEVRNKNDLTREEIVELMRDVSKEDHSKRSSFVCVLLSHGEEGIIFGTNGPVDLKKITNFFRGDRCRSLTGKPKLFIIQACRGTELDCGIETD
T2 sequence (P42574 176-277 limits assumed): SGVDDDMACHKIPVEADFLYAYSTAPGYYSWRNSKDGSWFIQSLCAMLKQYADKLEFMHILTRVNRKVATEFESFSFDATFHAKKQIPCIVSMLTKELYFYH
Text: as §1, §2
In this example, the Caspase-2 and Caspase-3 are human recombinant active enzymes that are respectively provided by Enzo Life® (ALX-201-057-U100) and R&D Systems® (707-C3-010/CF). […]
as §3, with “They are fluorogenic due to the presence of their AMC (7-amino-4-methylcoumarin) end group.” left out
The fluorescence values are measured at 37° C. with a spectrofluorometer with a microplate reader BMG FLUOstar OPTIMA. […]
The inhibitory properties of the tested compounds are evaluated by the determination of the kinact/KI ratio regarding either Caspase-2 or Caspase-3 wherein: • kinact is the maximal inactivation rate constant, and • KI is the dissociation constant according to: […]
as §4

HeLa cells = experiment: Protection against cellular death induced by vincristine, propidium iodide flow cytometry; format: cell-based, human; details: compound at 3, 10, 30 and 60 μM added 1 hour before 20 nM vincristine, 48 hours
Experimental: In this example, the protective effect of the compound 2 of the invention against cellular death induced by vincristine (a vinca alkaloid) is tested using a well-known flow cytometry cell death assay based on propidium iodide staining.
To evaluate the protecting effect of compound 2, a Caspase-dependent cellular model is used.
Human HeLa cells are used in this model. HeLa cells (cervical cancer cell line) were obtained from American Type Cell Collection (ATCC), and were cultured in Dulbecco's Modified Eagle Medium (DMEM, High Glucose, GlutaMAX™, Pyruvate) (Gibco, Life technologies), supplemented with 10% FCS and antibiotics (Gibco, Life technologies).
Human HeLa cells are treated with Vincristine (Sigma Aldrich) solubilized in water at 5 mM. Vincristine works partly by binding to the tubulin protein, stopping the cell from separating its chromosomes during the metaphase; the cell then undergoes apoptosis.
Propidium iodide (PI) (Sigma Aldrich) is used to evaluate plasma membrane permeabilisation, a sign of cell death. […]
The cells are then analyzed by flow cytometry with an excitation of 561 nm.
Fluorescence-Activated Cell Sorting was performed using a FACSCalibur cytometer (Becton Dickinson, San Jose, Calif.). For each sample, data from 5,000 Cells were registered and analyzed with the CellQuest Pro™ software (Becton Dickinson). […]

| SMILES | kinact/KI (Caspase-2) [M⁻¹ s⁻¹] | times more efficient to inactivate Caspase-2 than to inactivate Caspase-3 (selectivity) (Caspase-2) | kinact/KI (Caspase-3) [M⁻¹ s⁻¹] | protection of cells against apoptotic death induced by vincristine (percentage of propidium iodide positive cells) (HeLa cells) | efficiency to inhibit Caspase-2 (in words) (Caspase-2; compared with Δ2Me-TRP601) |
| --- | --- | --- | --- | --- | --- |
| CC(C)[C@H](NC(=O)c1ccc2ccccc2n1)C(=O)N[C@@H](CC(=O)O)C(=O)N[C@H](C(=O)N[C@@H](C)C(=O)N[C@@H](CC(=O)O)C(=O)COc1c(F)cccc1F)C(C)C [Δ2Me-TRP-601, reference compound] (Quinaldoyl-VDVA-X1) | 1.57e+06 | does not exhibit this selectivity | 1.92e+06 | – | – |
| Cc1ccc2c(c1)CCN(C(=O)[C@@H](NC(=O)[C@H](CC(=O)O)NC(=O)[C@@H](NC(=O)c1ccc3ccccc3n1)C(C)C)C(C)C)[C@@H]2C(=O)N[C@@H](CC(=O)O)C(=O)COc1c(F)cccc1F [Compound 2, (S)-3-((S)-2-((S)-2-((S)-3-carboxy-2-((S)-3-methyl-2-(quinoline-2-carboxamido)butanamido)propanamido)-3-methylbutanoyl)-6-methyl-1,2,3,4-tetrahydroisoquinoline-1-carboxamido)-5-(2,6-difluorophenoxy)-4-oxopentanoic acid] | 1.76e+06 | 57 times | 30500 | protects the cells against apoptotic death induced by vincristine in a dose-dependent manner | as efficient as Δ2Me-TRP601 to inhibit Caspase-2 |
